Source: the supplement of paper PMC10627819

Experiments:
B. subtilis 168 [1] = assay: fitness (endpoint OD595 vs no drug) (fraction); higher = more growth
How it was run: (§1)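 Plates with 384 wells were inoculated at OD595 0.01 using 30 µl of TSB, LB Lennox or CY, or 55 µl for S. pneumoniae. Incubation was at 37 °C, with OD595 measured every 30 min for 14 h. Fitness is the stationary-phase transition optical density over the robust mean of no-drug control wells, after first-reading background subtraction; it is capped at 1.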

S. aureus DSM 20231 = assay: Bliss interaction score (quartile over a dose matrix) (fitness difference); higher = more antagonism (negative = synergy)
How it was run: (§2)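 Each plate was normalised to the robust mean of its own no-drug wells, using OD595 at entry into stationary phase, with values capped at 1. This normalised growth is the fitness value. The Bliss score is the difference between observed and product-expected fitness, with single-drug fitness inferred from the combination data and quartiles taken over technical, biological and donor/recipient replicates.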

B. subtilis 168 [2] = assay: as above
How it was run: as §2

S. pneumoniae D39V [3] = assay: as above
How it was run: as §2

S. aureus Newman = assay: as above
How it was run: as §2

S. pneumoniae D39V [4] = assay: fitness (endpoint OD595 vs no drug) (fraction); higher = more growth
How it was run: as §1
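Throughout, for Bliss interaction score (quartile over a dose matrix): first quartile when negative (synergy) and third quartile when positive (antagonism).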

CC1=C(C(=O)O)N2C(=O)[C@@H](NC(=O)[C@H](N)c3ccccc3)[C@H]2SC1 [Cephalexin] + CO[C@@H]1[C@@H](OC(N)=O)[C@@H](O)[C@H](Oc2ccc3c(O)c(NC(=O)c4ccc(O)c(CC=C(C)C)c4)c(=O)oc3c2C)OC1(C)C [Novobiocin]
fitness, B. subtilis 168 [1]
Details	first compound 0.125 µg/mL	first compound 0.25 µg/mL	first compound 0.5 µg/mL
partner 0.0125 µg/mL	0.97	0.978	0.98
partner 0.025 µg/mL	0.918	0.936	0.93
partner 0.05 µg/mL	0.984	0.972	0.97

fitness, B. subtilis 168 [1], one replicate
Details	first compound 0.25 µg/mL	first compound 0.5 µg/mL	first compound 1 µg/mL
partner 0.125 µg/mL	0.95	0.839	0.946
partner 0.25 µg/mL	0.857	0.866	0.926
partner 0.5 µg/mL	0.603	0.49	0.593

Details	Bliss interaction score
B. subtilis 168 [2]	0.0738
S. aureus DSM 20231	0.0648
S. aureus Newman	0.0794
S. pneumoniae D39V [3]	-0.0986

Clc1ccc(COC(Cn2ccnc2)c2ccc(Cl)cc2Cl)c(Cl)c1 (stereo not given) [Miconazole] + CN[C@@H]1[C@H](O)[C@H](NC)[C@H]2O[C@@]3(O)C(=O)C[C@@H](C)O[C@H]3O[C@@H]2[C@H]1O [Spectinomycin]
fitness, S. pneumoniae D39V [4]
Details	first compound 1.073 µg/mL	first compound 2.145 µg/mL	first compound 4.29 µg/mL
partner 4 µg/mL	≥ 1	≥ 1	0.88
partner 8 µg/mL	0.966	0.995	0.961
partner 16 µg/mL	0.942	0.963	0.893

fitness, S. pneumoniae D39V [4], one replicate
Details	first compound 1.25 µg/mL	first compound 2.5 µg/mL	first compound 5 µg/mL
partner 4 µg/mL	0.963	0.95	0.985
partner 8 µg/mL	0.891	0.879	0.906

Details	Bliss interaction score
B. subtilis 168 [2]	0.0664
S. aureus DSM 20231	-0.0228
S. aureus Newman	0.0708
S. pneumoniae D39V [3]	0.09

Clc1ccc(COC(Cn2ccnc2)c2ccc(Cl)cc2Cl)c(Cl)c1 (stereo not given) [Miconazole] + CN[C@@H]1[C@H](O[C@H]2[C@H](O[C@H]3[C@H](O)[C@@H](O)[C@H](N=C(N)N)[C@@H](O)[C@@H]3N=C(N)N)O[C@@H](C)[C@]2(O)C=O)O[C@@H](CO)[C@H](O)[C@H]1O [Streptomycin]
fitness, S. pneumoniae D39V [4]
Details	first compound 1.073 µg/mL	first compound 1.25 µg/mL	first compound 2.145 µg/mL	first compound 2.5 µg/mL	first compound 4.29 µg/mL	first compound 5 µg/mL
partner 2 µg/mL	0.978	–	0.977	–	0.936	–
partner 4 µg/mL	0.988	0.909	0.988	0.904	0.946	0.912
partner 8 µg/mL	≥ 1	0.86	≥ 1	0.832	0.932	0.86

fitness, S. pneumoniae D39V [4], one replicate
Details	first compound 1.25 µg/mL	first compound 2.5 µg/mL	first compound 5 µg/mL
partner 2 µg/mL	0.922	0.964	0.977
partner 16 µg/mL	0.712	0.632	0.679

Details	Bliss interaction score
B. subtilis 168 [2]	0.0605
S. aureus DSM 20231	0.0476
S. aureus Newman	0.0487
S. pneumoniae D39V [3]	0.0827

Clc1ccc(COC(Cn2ccnc2)c2ccc(Cl)cc2Cl)c(Cl)c1 (stereo not given) [Miconazole] + CN[C@H](CC(C)C)C(=O)N[C@H]1C(=O)N[C@@H](CC(N)=O)C(=O)N[C@H]2C(=O)N[C@H]3C(=O)N[C@H](C(=O)N[C@H](C(=O)O)c4cc(O)cc(O)c4-c4cc3ccc4O)[C@H](O)c3ccc(c(Cl)c3)Oc3cc2cc(c3O[C@@H]2O[C@H](CO)[C@@H](O)[C@H](O)[C@H]2O[C@H]2C[C@](C)(N)[C@H](O)[C@H](C)O2)Oc2ccc(cc2Cl)[C@H]1O [Vancomycin]
fitness, S. pneumoniae D39V [4]
Details	first compound 1.073 µg/mL	first compound 1.25 µg/mL	first compound 2.145 µg/mL	first compound 2.5 µg/mL	first compound 4.29 µg/mL	first compound 5 µg/mL
partner 0.03125 µg/mL	–	0.993	–	≥ 1	–	0.966
partner 0.0625 µg/mL	–	0.909	–	0.923	–	0.913
partner 0.125 µg/mL	0.884	0.759	0.851	0.81	0.84	0.731
partner 0.5 µg/mL	–	–	–	–	0.415	–

Details	Bliss interaction score
B. subtilis 168 [2]	0.0343
S. aureus DSM 20231	0.0309
S. aureus Newman	0.0654
S. pneumoniae D39V [3]	0.154

Clc1ccc(COC(Cn2ccnc2)c2ccc(Cl)cc2Cl)c(Cl)c1 (stereo not given) [Miconazole] + CO[C@H]1/C=C/O[C@@]2(C)Oc3c(C)c(O)c4c(O)c(c(/C=N/N5CCN(C)CC5)c(O)c4c3C2=O)NC(=O)/C(C)=C\C=C\[C@H](C)[C@H](O)[C@@H](C)[C@@H](O)[C@@H](C)[C@H](OC(C)=O)[C@@H]1C [Rifampicin]
fitness, S. pneumoniae D39V [4]
Details	first compound 1.073 µg/mL	first compound 1.25 µg/mL	first compound 2.145 µg/mL	first compound 2.5 µg/mL	first compound 4.29 µg/mL	first compound 5 µg/mL
partner 0.05 µg/mL	0.974	0.774	1	0.806	0.998	0.779
partner 0.1 µg/mL	–	0.411	–	0.41	0.776	–
partner 0.2 µg/mL	0.363	–	0.37	–	0.477	–

fitness, S. pneumoniae D39V [4], one replicate
Details	first compound 1.25 µg/mL	first compound 2.5 µg/mL	first compound 5 µg/mL
partner 0.025 µg/mL	0.856	0.861	0.853
partner 0.2 µg/mL	0	0	0

Details	Bliss interaction score
B. subtilis 168 [2]	0.0476
S. aureus DSM 20231	0.035
S. aureus Newman	0.0801
S. pneumoniae D39V [3]	0.169
